Test results as given in patent US6794149B1, “GABA B receptors” (Bayer Aktiengesellschaft, priority 1999, dated 2004).

How the values were obtained:
[1] = system: D-GABA B receptors R1/R2; assay: cAMP measurement in HEK293 cells stably coexpressing D-GABA B R1/R2; format: cell-based, Drosophila melanogaster; details: D-GABA B R1/2-transfected HEK293 cells; GABA (100 μM) with forskolin (10 μM), 30 minutes, 37° C.; FIG. 2
Procedure: HEK293 cells were cultured at 5% CO2 and 37° C. in Dulbecco's modified Eagle's medium and 10% foetal calf serum. MBS (Stratagene, La Jolla, USA) was used for the gene transfer, following the manufacturer's instructions. 24 h to 48 h after the gene transfer, the cells were sown intro microtiter plates at various densities. Recombinant cells were selected over 3 to 4 weeks by growth in Dulbecco's modified Eagles medium and 10% foetal calf serum and 700 μg/ml Geneticin (G418, Life Technologies, Karlsruhe) as selection marker. Individual resistant clones were analysed as described below.
HEK293 cell strains were used for determining the cAMP concentration. On the one hand, HEK293 cells stably coexpressed the two Drosophila melanogaster receptors D-GABA B R1 and D-GABA B R2 (D-GABA R1/2). On the other hand, untransfected control cells were incorporated into the assay (control). In each case, the cells were plated into 96-well-plates at a density of 20,000 cells per cavity. […] The cells were lysed for 20 minutes at room temperature with shaking, and the cAMP concentration of the cell lysates were determined in triplicate using the enzyme immunoassay (EIA) kit AK-200 (Biomol, Hamburg, Germany) following the manufacturer's description.

[2] = system: untransfected control cells (HEK293); assay: cAMP measurement in untransfected HEK293 control cells; format: cell-based; details: GABA (100 μM) with forskolin (10 μM), 30 minutes, 37° C., FIG. 2
Procedure: HEK293 cell strains were used for determining the cAMP concentration. On the one hand, HEK293 cells stably coexpressed the two Drosophila melanogaster receptors D-GABA B R1 and D-GABA B R2 (D-GABA R1/2). On the other hand, untransfected control cells were incorporated into the assay (control). In each case, the cells were plated into 96-well-plates at a density of 20,000 cells per cavity. Control cells were incubated in culture medium (DMEM, 10% FCS, penicillin and streptomycin, 50 U/ml and 50 μg/ml (Life Technologies)) and D-GABA-R1/2 expressing cells in selection medium (culture medium with 0.5 mg/ml Geneticin (G418, Life Technologies)) for 48 hours at 37° C. until a cell density of approximately 80% was reached. Thereupon, the medium was removed, and the cells were washed once with unsupplemented DMEM. After incubation for 30 minutes with IBMX (300 μM) at 37° C., cells were stimulated for 30 minutes with GABA (100 μM) and/or forskolin (10 μM) at 37° C. All incubation steps were carried out in unsupplemented DMEM (Life Technologies). […] The cells were lysed for 20 minutes at room temperature with shaking, and the cAMP concentration of the cell lysates were determined in triplicate using the enzyme immunoassay (EIA) kit AK-200 (Biomol, Hamburg, Germany) following the manufacturer's description.

SMILES: NCCCC(=O)O [GABA, Gamma-amino-butyric acid]
- forskolin-induced cAMP response (intracellular cAMP concentration) [1]: marked reduction
- forskolin-induced cAMP response (intracellular cAMP concentration) [2]: unresponsive
